Reference: US20230036911A1, “CULTURE SYSTEMS FOR THE EFFICIENT PRODUCTION OF GENE TRANSFER VECTORS” (Greffex, Inc., priority 2019, published 2023)

Experiments:
HEK293-type cells [1] = assay: Cellular DNA content by Vybrant staining and flow cytometry of cultured HEK293-type cells; format: cell-based, human; conditions: ascorbic acid 5 µg/ml, 24 hrs of culture, versus culture in the absence of ascorbic acid
Protocol: HEK293-type cells were taken from a working cell bank and were cultured in an appropriate tissue culture vessel in an appropriate tissue culture medium both known by a person skilled in the art. They were expanded at appropriate conditions, such 37° C., 5% CO2. Cell growth and density was monitored daily. One day after cellular confluency was reached the cells were harvested by methods known by a person skilled in the art. The harvested HEK293-type cells were diluted in tissue culture medium and reseeded in an appropriate tissue culture vessel in and appropriate tissue culture medium. To one set of HEK293-type cells ascorbic acid was added at a final concentration of 5 µg/ml. After 24 hrs of culture, the cells were harvested and stained for DNA content by Vybrant (Invitrogen) following the manufacturers protocols. The cells were analyzed by fluorescence on a fluorescence activate cell analyzer (Beckman-Coulter Cytomics FC500).

HEK293-type cells [2] = assay: Production (encapsidation) of the fully deleted helper virus independent Adenoviral vector fdhiAdGFP, read out as GFP-expressing cells after infection with supernatant; format: cell-based, human
Source text: In the present example, the use of ascorbic acid composition exemplified by its used for the production of DNA virus, such as, but not limited to, a fully deleted helper virus independent Adenoviral vector. The vector production systems is comprised of three components (as exemplified in FIG. 1): (i) The GreVac module is packaged into the vector. It carries an expression cassette for a transgene, such as the green fluorescent protein, (cytomegalovirus immediate early promotor/enhancer / transgene / human growth hormone poly-adenylation sequence) flanked by ITRs and Ψ sequences, and is called fdhiAdGFP. […]
HEK293-type cells were taken from the working cell bank and were cultured in an appropriate tissue culture vessel in an appropriate tissue culture medium both known by someone experienced in the art. […] Cell growth and density were monitored daily by light microscopy. […]
To measure the efficiency of encapsidation, HEK293-type cells in culture were infected with defined volumes of the Adenoviral vector containing supernatants. […] Then they were harvested and examined for the extent of green fluorescence on a fluorescence activate cell analyzer (Beckman-Coulter Cytomics FC500) as an indicator of the number of infectious adenoviral particles released from the production cells.

O=C1O[C@H]([C@@H](O)CO)C(O)=C1O [ascorbic acid]
levels of DNA content in cells (HEK293-type cells [1]): increased levels of DNA
percentage of cells in the S and G2 stages of the cell cycle (HEK293-type cells [1]): a larger percentage of cells had entered the S and G2 stages of the cell cycle
rate of encapsidation of a gene transfer vector (HEK293-type cells [2]; ascorbic acid added to production cells, conclusion from the studies): increased the rate of encapsidation
number of infected (GFP-expressing) cells after infection with Adenoviral vector containing supernatant (HEK293-type cells [2]; production cells with ascorbic acid 5 µg/ml, 5 days of production, transduced cells read after 2 days, versus no ascorbic acid): significantly larger number of infected cells
